Where two headings read alike, the source gives them in different places.
Tests used:
[1] = Ex vivo biodistribution in tumor-bearing nude mice (non-tumor tissues); conditions: male, Balb/cAnNRj-Foxn1nu/nu (nude), mouse, iv, total radioactivity, ex vivo after PET/CT scan, i.v., n = 3
Description: (§1) For the evaluation of the in vivo pharmacokinetics, the two most promising HBPLs—[^18F]2 with the highest affinity to both target receptors and [^18F]4 with the highest hydrophilicity and still reasonable binding affinities—were selected. For PET/CT imaging, 6-week-old male nude mice (Balb/cAnNRj-Foxn1^nu/nu) were subcutaneously injected with 5 × 10^5 B16F10 cells into the right flank and 2.0–2.5 × 10^6 U87MG cells into the left flank to generate the respective receptor-positive tumors. When the tumors reached a sufficient size for imaging, each mouse was administered 4.15 ± 2.28 MBq of [^18F]2 or 3.95 ± 2.06 MBq of [^18F]4 via the lateral tail vein under isoflurane anesthesia. To determine the receptor specificity of both peptide parts of the labeled HBPLs and their relative contribution to overall tumor uptake, blocking experiments were also performed. […] After i.v. injection of the tracers, a dynamic PET scan, followed by a CT scan, was performed. The resulting PET/CT images and time–activity curves (TACs) are depicted in Figure 6, Figure 7 and Figure 8. After completion of the diagnostic scans, the mice were sacrificed, their organs (blood, spleen, liver, kidney, pancreas, lung, heart, brain, bone, muscle, tail, tumors, stomach, colon and small intestine) were collected and measured in a γ-counter for ex vivo biodistribution (see Supplementary Materials Table S1 for detailed results).
(§2) Each male nude mouse (six weeks old) was injected subcutaneously with 5 × 10^5 B16F10 cells into the right flank and 2.0–2.5 × 10^6 U87MG cells into the left flank. The health status and tumor growth of the mice were monitored regularly until the animals could be examined after 15–21 days, depending on the tumor size. For the in vivo experiments, the ^18F-radiolabeled compound was diluted in 0.9% saline to give a final EtOH concentration of <10%. Each mouse was injected with 4.15 ± 2.28 MBq of [^18F]2 or 3.95 ± 2.06 MBq of [^18F]4 via the lateral tail vein under isoflurane anesthesia. […] Each ^18F-labeled compound was studied with or without blocking in at least three mice. Mice were measured under isoflurane anesthesia in a small PET/SPECT/CT animal imaging system. First, a dynamic PET scan was performed over 90 min and the scan was framed in 29 timeframes (10 × 1 min, 10 × 2 min, 6 × 5 min, 3 × 10 min). Images were reconstructed using 12 iterations, a maximum likelihood expectation maximization (MLEM) algorithm including corrections for scattered radiation and decay and a voxel size of 0.5 mm. All PET scans were immediately followed by CT acquisition at a voltage of 45 kV and a current of 400 μA. The images were reconstructed using the filtered back projection (FBP) algorithm with a voxel size of 250 μm. The analysis of the data, including the generation of TACs of the kidneys, liver and tumors and the MIPs, was performed via PMOD (v3.8). For ex vivo biodistribution, the mice were sacrificed directly after the PET/CT scan. Organs (blood, spleen, liver, kidneys, pancreas, lungs, heart, brain, bone, muscle, tail, tumors, stomach, colon and small intestine) were collected, weighed and their radioactivity measured in a γ-counter. The percentage injected dose per gram (% ID/g) of each tissue was calculated from the determined values, organ weights, reference values and injected activity.

[2] = Ex vivo biodistribution: uptake in U87MG tumors and tumor-to-organ ratios; set-up: species or system nude mice (Balb/cAnNRj-Foxn1nu/nu); conditions: male, Balb/cAnNRj-Foxn1nu/nu (nude), mouse, iv, total radioactivity; for tissue uptake: U87MG tumor (integrin αvβ3-positive); for tissue to tissue ratio: ex vivo biodistribution, mean (n = 3) ± SD
Description: as §1, §2

[3] = tested on: integrin αvβ3-positive U87MG tumors; test: as above; set-up: species or system nude mice (Balb/cAnNRj-Foxn1nu/nu); conditions: c(RGDyK) blocking (200 μg coinjected); ex vivo after PET/CT scan; i.v.; n = 3
Description: as §1, §2

CCCC[C@H](NC(=O)CNC(=O)CNC(=O)CCOCCOCCOCCOCCOCCOCCOCCOCCOCCC(=O)NCCCN(CCCNC(=O)CCOCCOCCOCCOCCOCCOCCOCCOCCOCCC(=O)NCCCC[C@@H]1NC(=O)[C@@H](Cc2ccccc2)NC(=O)[C@H](CC(=O)O)NC(=O)CNC(=O)[C@H](CCCNC(=N)N)NC1=O)CC(=O)N[C@@H](CCCCNC(=O)CCC[N+](C)(C)Cc1ccc([Si](F)(C(C)(C)C)C(C)(C)C)cc1)C(N)=O)C(=O)N[C@H]1CC(=O)NCCCC[C@@H](C(N)=O)NC(=O)[C@H](Cc2c[nH]c3ccccc23)NC(=O)[C@H](CCCNC(=N)N)NC(=O)[C@@H](Cc2ccccc2)NC(=O)[C@H](Cc2c[nH]cn2)NC1=O [[^18F]4]
tissue uptake at 1.5 h ([1]; blood, NDP blocking (20 μg coinjected), read-out: ID/g, blood): 2.07 ± 0.94 %ID/g | tissue uptake at 1.5 h ([1]; blood, c(RGDyK) blocking (200 μg coinjected), read-out: ID/g, blood): 0.83 ± 0.06 %ID/g | tissue uptake at 1.5 h ([1]; blood, double blocking (NDP + c(RGDyK)), read-out: ID/g, blood): 1 ± 0.15 %ID/g | tissue uptake at 1.5 h ([1]; blood, without blocking, read-out: ID/g, blood): 0.59 ± 0.08 %ID/g | tissue uptake at 1.5 h ([1]; bone, NDP blocking (20 μg coinjected), read-out: ID/g, bone): 4.61 ± 0.71 %ID/g | tissue uptake at 1.5 h ([1]; bone, c(RGDyK) blocking (200 μg coinjected), read-out: ID/g, bone): 4.99 ± 0.71 %ID/g | tissue uptake at 1.5 h ([1]; bone, double blocking (NDP + c(RGDyK)), read-out: ID/g, bone): 2.99 ± 0.78 %ID/g | tissue uptake at 1.5 h ([1]; bone, without blocking, read-out: ID/g, bone): 18.1 ± 6.02 %ID/g | tissue uptake at 1.5 h ([1]; brain, NDP blocking (20 μg coinjected), read-out: ID/g, brain): 0.19 ± 0.07 %ID/g | tissue uptake at 1.5 h ([1]; brain, c(RGDyK) blocking (200 μg coinjected), read-out: ID/g, brain): 0.07 ± 0.02 %ID/g | tissue uptake at 1.5 h ([1]; brain, double blocking (NDP + c(RGDyK)), read-out: ID/g, brain): 0.07 ± 0.01 %ID/g | tissue uptake at 1.5 h ([1]; brain, without blocking, read-out: ID/g, brain): 0.1 ± 0.03 %ID/g | tissue uptake ([1]; colon, NDP blocking (20 μg coinjected), read-out: ID/g, colon): 0.96 ± 0.13 %ID/g | tissue uptake ([1]; colon, c(RGDyK) blocking (200 μg coinjected), read-out: ID/g, colon): 0.8 ± 0.32 %ID/g | tissue uptake ([1]; colon, double blocking (NDP + c(RGDyK)), read-out: ID/g, colon): 0.42 ± 0.05 %ID/g | tissue uptake ([1]; colon, without blocking, read-out: ID/g, colon): 0.77 ± 0.26 %ID/g | tissue uptake at 1.5 h ([1]; heart, NDP blocking (20 μg coinjected), read-out: ID/g, heart): 0.73 ± 0.06 %ID/g | tissue uptake at 1.5 h ([1]; heart, c(RGDyK) blocking (200 μg coinjected), read-out: ID/g, heart): 1.51 ± 0.57 %ID/g | tissue uptake at 1.5 h ([1]; heart, double blocking (NDP + c(RGDyK)), read-out: ID/g, heart): 0.52 ± 0.06 %ID/g | tissue uptake at 1.5 h ([1]; heart, without blocking, read-out: ID/g, heart): 0.56 ± 0.19 %ID/g | tissue uptake at 1.5 h ([1]; kidneys, NDP blocking (20 μg coinjected), read-out: ID/g, kidneys): 23.1 ± 4.97 %ID/g | tissue uptake at 1.5 h ([1]; kidneys, c(RGDyK) blocking (200 μg coinjected), read-out: ID/g, kidneys): 21.4 ± 4.04 %ID/g | tissue uptake at 1.5 h ([1]; kidneys, double blocking (NDP + c(RGDyK)), read-out: ID/g, kidneys): 26.5 ± 6.59 %ID/g | tissue uptake at 1.5 h ([1]; kidneys, without blocking, read-out: ID/g, kidneys): 7.72 ± 2.57 %ID/g | tissue uptake at 1.5 h ([1]; liver, NDP blocking (20 μg coinjected), read-out: ID/g, liver): 5.16 ± 0.56 %ID/g | tissue uptake at 1.5 h ([1]; liver, c(RGDyK) blocking (200 μg coinjected), read-out: ID/g, liver): 10.4 ± 3.65 %ID/g | tissue uptake at 1.5 h ([1]; liver, double blocking (NDP + c(RGDyK)), read-out: ID/g, liver): 4.04 ± 1.06 %ID/g | tissue uptake ([1]; liver, without blocking, read-out: ID/g, liver): 8.3 ± 2.77 %ID/g | tissue uptake at 1.5 h ([1]; lung, NDP blocking (20 μg coinjected), read-out: ID/g, lung): 1.25 ± 0.06 %ID/g | tissue uptake at 1.5 h ([1]; lung, c(RGDyK) blocking (200 μg coinjected), read-out: ID/g, lung): 2.75 ± 1.04 %ID/g | tissue uptake at 1.5 h ([1]; lung, double blocking (NDP + c(RGDyK)), read-out: ID/g, lung): 0.88 ± 0.14 %ID/g | tissue uptake at 1.5 h ([1]; lung, without blocking, read-out: ID/g, lung): 3.45 ± 1.15 %ID/g | tissue uptake at 1.5 h ([1]; muscle, NDP blocking (20 μg coinjected), read-out: ID/g, muscle): 0.63 ± 0.07 %ID/g | tissue uptake at 1.5 h ([1]; muscle, c(RGDyK) blocking (200 μg coinjected), read-out: ID/g, muscle): 1.62 ± 0.42 %ID/g | tissue uptake at 1.5 h ([1]; muscle, double blocking (NDP + c(RGDyK)), read-out: ID/g, muscle): 2.58 ± 1.28 %ID/g | tissue uptake at 1.5 h ([1]; muscle, without blocking, read-out: ID/g, muscle): 0.07 ± 0.02 %ID/g | tissue uptake at 1.5 h ([1]; pancreas, NDP blocking (20 μg coinjected), read-out: ID/g, pancreas): 0.52 ± 0.12 %ID/g | tissue uptake at 1.5 h ([1]; pancreas, c(RGDyK) blocking (200 μg coinjected), read-out: ID/g, pancreas): 0.66 ± 0.19 %ID/g | tissue uptake at 1.5 h ([1]; pancreas, double blocking (NDP + c(RGDyK)), read-out: ID/g, pancreas): 0.32 ± 0.04 %ID/g | tissue uptake at 1.5 h ([1]; pancreas, without blocking, read-out: ID/g, pancreas): 0.25 ± 0.08 %ID/g | tissue uptake ([1]; small intestine, NDP blocking (20 μg coinjected), read-out: ID/g, small intestine): 1.6 ± 0.26 %ID/g | tissue uptake ([1]; small intestine, c(RGDyK) blocking (200 μg coinjected), read-out: ID/g, small intestine): 1.46 ± 0.53 %ID/g | tissue uptake ([1]; small intestine, double blocking (NDP + c(RGDyK)), read-out: ID/g, small intestine): 0.54 ± 0.08 %ID/g | tissue uptake ([1]; small intestine, without blocking, read-out: ID/g, small intestine): 0.07 ± 0.02 %ID/g | tissue uptake ([1]; spleen, NDP blocking (20 μg coinjected), read-out: ID/g, spleen): 1.51 ± 0.15 %ID/g | tissue uptake ([1]; spleen, c(RGDyK) blocking (200 μg coinjected), read-out: ID/g, spleen): 1.71 ± 0.62 %ID/g | tissue uptake ([1]; spleen, double blocking (NDP + c(RGDyK)), read-out: ID/g, spleen): 0.69 ± 0.1 %ID/g | tissue uptake ([1]; spleen, without blocking, read-out: ID/g, spleen): 1.79 ± 0.31 %ID/g | tissue uptake ([1]; stomach, NDP blocking (20 μg coinjected), read-out: ID/g, stomach): 1.03 ± 0.11 %ID/g | tissue uptake ([1]; stomach, c(RGDyK) blocking (200 μg coinjected), read-out: ID/g, stomach): 0.99 ± 0.16 %ID/g | tissue uptake ([1]; stomach, double blocking (NDP + c(RGDyK)), read-out: ID/g, stomach): 0.42 ± 0.03 %ID/g | tissue uptake ([1]; stomach, without blocking, read-out: ID/g, stomach): 0.38 ± 0.13 %ID/g | tissue uptake at 1.5 h ([1]; tail, NDP blocking (20 μg coinjected), read-out: ID/g, tail): 52.8 ± 5.59 %ID/g | tissue uptake at 1.5 h ([1]; tail, c(RGDyK) blocking (200 μg coinjected), read-out: ID/g, tail): 44.3 ± 12.1 %ID/g | tissue uptake ([1]; tail, double blocking (NDP + c(RGDyK)), read-out: ID/g, tail): 55.6 ± 7.12 %ID/g | tissue uptake at 1.5 h ([1]; tail, without blocking, read-out: ID/g, tail): 25.3 ± 8.43 %ID/g | tissue uptake ([2]; NDP blocking (20 μg coinjected), ex vivo after PET/CT scan, i.v., n = 3): 2.53 ± 0.15 %ID/g | tissue uptake ([2]; c(RGDyK) blocking (200 μg coinjected), ex vivo after PET/CT scan, i.v., n = 3): 2.67 ± 0.66 %ID/g | tissue uptake ([2]; double blocking (NDP + c(RGDyK)), ex vivo after PET/CT scan, i.v., n = 3): 0.9 ± 0.05 %ID/g | tissue uptake ([2]; without blocking, ex vivo after PET/CT scan, i.v., n = 3): 3.92 ± 1.31 %ID/g | tissue to tissue ratio ([2]; U87MG tumor / blood, without blocking, read-out: tumor/blood ratio, U87MG): 5.08 ± 0.75 | tissue to tissue ratio ([2]; U87MG tumor / kidneys, without blocking, read-out: tumor/kidneys ratio, U87MG): 0.4 ± 0.07 | tissue to tissue ratio ([2]; U87MG tumor / liver, without blocking, read-out: tumor/liver ratio, U87MG): 0.39 ± 0.14 | tissue to tissue ratio ([2]; U87MG tumor / muscle, without blocking, read-out: tumor/muscle ratio, U87MG): 45.7 ± 8.62 | tissue uptake at 1.5 h ([2]; U87MG tumor, without blocking, ex vivo after PET/CT scan, i.v., n = 3): 3.92 ± 1.31 %ID/g | ID/g, U87MG tumor [3]: 2.67 ± 0.66 % ID/g
